Assay results as given in patent US5753516A, “Screening method for ligands of the EBI-1 receptor” (priority 1995, dated 1998).
Entries after “also recorded” stand apart in the source; their conditions may differ. Read-outs that look alike come from different tables or passages of the source.

System: NALM 6 cells
Assay: [Ca^2+ ]i response of NALM 6 / leukemia cells (Indo-1, flow cytometry)
Assay type: cell-based, human
Protocol: FIG. 15, Panels A-C. […] Cells were labeled with Indo-1 as previously described (Rabinovitch et al., 1986), washed twice in serum-free medium and held at 4° C. until flow cytometric analysis. The violet/blue fluorescence ratio was measured using previously described methods (Rabinovitch et al., 1986). Nonstimulated cells (measured in medium, alone) were used to establish a relative violet/blue ratio arbitrarily set at 1.0 as previously described (Rabinovitch). Calibration of [Ca^2+ ]i was carried out as previously described by Rabinovitch et al (1986) using the formula: [formula]
Rmax values were determined by measuring the maximum shift in indo violet/blue fluorescence for cells treated with 4 μM ionomycin. Rmin was measured as the minimum ratio for the violet blue fluorescence of ionomycin treated cells following the addition of 8 mM EGTA. […] The Kd (effective dissociation constant) was set at 250 nM.

In the case of `CSCC[C@H](NC(=O)[C@H](Cc1ccccc1)NC(=O)CNC(=O)CNC(=O)[C@@H](N)Cc1ccc(O)cc1)C(=O)O` [MET-ENK, Tyr-Gly-Gly-Phe-Met], the “[Ca^2+ ]i response” value is reported as “rapid rise in the concentration of free intracellular Ca2+; also recorded: rapid rise in [Ca^2+ ]i” and the “[Ca^2+ ]i response” value (listed as methionine-enkephalin) is reported as “concentration dependent rise in [Ca^2+ ]i”.
